Source: patent US20080076757A1, “MEDICINE FOR TREATING GASTROINTESTINAL DISORDER INCLUDING IRRITABLE BOWEL SYNDROME” (priority 2003, published 2008)

Key:
muscarinic receptors = assay: Effect on muscarinic receptors and bowels (statement of the inventor); design: species or system human
[1] = system: constipation-predominant IBS (C-IBS); details: patients with C-IBS; cited from earlier work
[2] = system: diarrhea-predominant irritable bowel syndrome (D-IBS); assay: Treatment of spinal-injury patients presenting diarrhea-predominant irritable bowel syndrome (case Examples 1, 3-6)
Description: The complaints include diarrhea-predominant irritable bowel syndrome (D-IBS, awake and sleeping).
The patient is treated with a total daily dose of medicine, which includes 25 mg of tricyclic antidepressant (imipramine hydrochloride) and 300 mg of stool softener (docusate sodium).

depression = assay: Treatment of recurrent depression in the patient of Example 4; type: in vivo, human; details: after several weeks of the SSRI anti-depressant

CN(C)CCCN1c2ccccc2CCc2ccccc21 [imipramine, 5-[3-(dimethylamino)propyl]-10,11-dihydro-5H-dibenzazepine]
muscarinic receptors affected (muscarinic receptors): primarily affects the M2 and M3 muscarinic receptors

C=C1CCC2(O)C3Cc4ccc(OC5OC(C(=O)O)C(O)C(O)C5O)c5c4C2(CCN3CC2CC2)C1O5 (centres unmarked) [nalmefene glucuronide]
abdominal pain or bloating [1]: did not reduce abdominal pain or bloating
stool consistency [1]: stool consistency was not improved
stool frequency [1]: increased stool frequency
transit time [1]: decreased transit time

CN(C)CCCN1c2ccccc2CCc2ccccc21.O=C(O)c1cc2ccccc2c(Cc2c(O)c(C(=O)O)cc3ccccc23)c1O [imipramine pamoate, 5-[3-(dimethylamino)propyl]-10,11-dihydro-5H-dibenzazepine 4,4-methlyenebis-(3-hydroxyl-2-napthoate)]
control of bladder and bowel functions ([2]; Example 3: person, L5-S1 degenerative disc disease, 75 mg/day imipramine pamoate alone, oral, after several days): full control of bladder and bowel functions
adverse effect ([2]; Example 3, imipramine pamoate 75 mg/day without stool softener): develops constipation

CNCCC(Oc1ccc(C(F)(F)F)cc1)c1ccccc1.Cl (centres unmarked) [Prozac®]
depression symptoms (depression): begins to obtain relief from the depression symptoms
